This is an account of results in paper PMC8909036 (Cells, 2022).

For orientation: IC50 means the concentration at which inhibition is half-maximal. Low readings indicate greater potency in that assay, high ones weaker potency in that assay.

Each structure is given as a SMILES string.

The target of one assay is T1, NbPYL1b (Nicotiana benthamiana, UniProt Z9Z2X8O5T5).
T1 construct: full ORF amplified from Nb genomic DNA (CDS 678 nt, 225 residues by count) in pETM11, His-tagged, E. coli BL21(DE3), Ni-NTA; dimer in gel filtration (apo); assayed with N-terminally truncated HAB1 (ΔN-HAB1); with Protein phosphatase 2C 16
T1 sequence (Z9Z2X8O5T5 1-225): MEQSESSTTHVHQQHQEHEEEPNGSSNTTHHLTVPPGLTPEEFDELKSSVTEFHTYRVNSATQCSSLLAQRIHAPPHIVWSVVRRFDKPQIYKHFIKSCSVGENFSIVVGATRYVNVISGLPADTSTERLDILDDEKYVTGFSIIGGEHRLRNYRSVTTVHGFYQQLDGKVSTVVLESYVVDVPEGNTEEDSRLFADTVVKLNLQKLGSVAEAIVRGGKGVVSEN
T1 sequence (Q9CAJ0 172-511 partner limits assumed): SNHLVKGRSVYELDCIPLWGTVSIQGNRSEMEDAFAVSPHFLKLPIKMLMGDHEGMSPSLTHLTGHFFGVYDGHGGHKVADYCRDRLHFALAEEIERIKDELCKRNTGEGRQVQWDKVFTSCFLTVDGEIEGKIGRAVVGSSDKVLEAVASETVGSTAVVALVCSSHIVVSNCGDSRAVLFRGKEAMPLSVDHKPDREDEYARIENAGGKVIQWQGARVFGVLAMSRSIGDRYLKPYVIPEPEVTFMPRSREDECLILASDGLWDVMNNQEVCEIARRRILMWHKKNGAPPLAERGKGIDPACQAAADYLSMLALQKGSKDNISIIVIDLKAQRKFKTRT
As to the kind of experiment: ligand-dependent inhibition of PP2C HAB1 by receptor, pNPP, […] nm. Particulars: 0.5 μM ΔN-HAB1, 1 or 2 μM NbPYL1b, 25 mM pNPP, 2 mM MnCl2, 25 mM Tris HCl pH 7.5; agonist, IC50 read on HAB1 activity. Format: biochemical.

Another assay has as its target T2, ΔN-HAB1 (Arabidopsis thaliana, UniProt Q9CAJ0).
T2 sequence (Q9CAJ0 172-511 limits assumed): T1 sequence (Q9CAJ0 172-511 partner limits assumed)
Description: phosphatase turnover, […] nm, […] min. The format is biochemical. Particulars: 25 mM pNPP, 2 mM MnCl2, 25 mM Tris HCl pH 7.5.

For the molecule `Cc1ccc(CS(=O)(=O)Nc2ccc(C#N)c(C3CC3)c2)cc1` [CB], the IC50 at NbPYL1b turned out to be 126 nM. In other words, the sub-micromolar range.

Consider `O=[N+]([O-])c1ccc(OP(=O)(O)O)cc1` [pNPP], for which the “phosphatase turnover, 405 nm, 30 min” value on ΔN-HAB1 is given as “Phosphatase activity was measured using p-nitrophenyl phosphate (pNPP) as a substrate”.
